Measurements: ChEMBL document CHEMBL3885861, “Open TG-GATES”

Species on record: Rattus norvegicus
Assay: Open TG-GATES - Regimen: Single
Format: toxicity, organism-based, Sprague-Dawley
Set-up: regimen Single, gender Male, age 6 weeks
Settings: in vivo, po, 0 mg/kg, route gavage, dose level Control; for Bas / Eos / Hb / Ht / Lym / MCH / MCHC / MCV / Mono / Neu / Plat / RBC / Ret / WBC: tissue Blood; for KIDNEY_L / KIDNEY_R / KIDNEY_TOTAL: tissue Kidney; for LIVER: tissue Liver; for A/G / ALP / ALT / AST / BUN / CRE / Ca / Cl / DBIL / GLC / IP / K / LDH / Na / PL / RALB / TBIL / TC / TG / TP / gamma-GTP: tissue Plasma

Cc1ccc2cc3c(ccc4ccccc43)c3c2c1CC3 [3-METHYLCHOLANTHRENE]
TERMINAL_BW (3 h): 209.2 g | Bas (3 h): 0% | Eos (3 h): 0.6% | Hb (3 h): 12.8 g/dL | Ht (3 h): 39.3% | Lym (3 h): 79.2% | MCH (3 h): 20.8 pg | MCHC (3 h): 32.6% | MCV (3 h): 63.7 fL | Mono (3 h): 3.6% | Neu (3 h): 16.2% | Plat (3 h): 126.1 x10_4/uL | RBC (3 h): 616.6 x10_4/ul | Ret (3 h): 8.7% | WBC (3 h): 119.3 x10_2/uL | KIDNEY_L (3 h): 0.9 g | KIDNEY_R (3 h): 0.9 g | KIDNEY_TOTAL (3 h): 1.9 g | LIVER (3 h): 9.3 g | A/G (3 h): 1.1 | ALP (3 h): 1726.2 IU/L | ALT (3 h): 46.2 IU/L | AST (3 h): 77.6 IU/L | BUN (3 h): 10.5 mg/dL | CRE (3 h): 0.1 mg/dL | Ca (3 h): 10.7 mg/dL | Cl (3 h): 104.3 meq/L | DBIL (3 h): 0.002 mg/dL | GLC (3 h): 185.2 mg/dL | IP (3 h): 7.7 mg/dL | K (3 h): 3.9 meq/L | LDH (3 h): 179.6 IU/L | Na (3 h): 140.3 meq/L | PL (3 h): 163.8 mg/dL | RALB (3 h): 2.8 g/dL | TBIL (3 h): 0.002 mg/dL | TC (3 h): 77.2 mg/dL | TG (3 h): 142.8 mg/dL | TP (3 h): 5.6 g/dL | gamma-GTP (3 h): 0.7 IU/L | TERMINAL_BW (6 h): 206.1 g | Bas (6 h): 0% | Eos (6 h): 0.6% | Hb (6 h): 12.8 g/dL | Ht (6 h): 38.9% | Lym (6 h): 69% | MCH (6 h): 20.7 pg | MCHC (6 h): 32.8% | MCV (6 h): 63.2 fL | Mono (6 h): 3.4% | Neu (6 h): 26.2% | Plat (6 h): 124.5 x10_4/uL | RBC (6 h): 616.2 x10_4/ul | Ret (6 h): 8.7% | WBC (6 h): 125.8 x10_2/uL | KIDNEY_L (6 h): 0.9 g | KIDNEY_R (6 h): 0.9 g | KIDNEY_TOTAL (6 h): 1.8 g | LIVER (6 h): 8.4 g | A/G (6 h): 1 | ALP (6 h): 1728.2 IU/L | ALT (6 h): 38 IU/L | AST (6 h): 69.6 IU/L | BUN (6 h): 8.9 mg/dL | CRE (6 h): 0.1 mg/dL | Ca (6 h): 10.4 mg/dL | Cl (6 h): 104.5 meq/L | DBIL (6 h): 0.002 mg/dL | GLC (6 h): 201.6 mg/dL | IP (6 h): 9.9 mg/dL | K (6 h): 4.3 meq/L | LDH (6 h): 114.8 IU/L | Na (6 h): 139.9 meq/L | PL (6 h): 142.4 mg/dL | RALB (6 h): 2.7 g/dL | TBIL (6 h): 0.014 mg/dL | TC (6 h): 80.2 mg/dL | TG (6 h): 51 mg/dL | TP (6 h): 5.5 g/dL | gamma-GTP (6 h): 0.7 IU/L | TERMINAL_BW (9 h): 204.4 g | Bas (9 h): 0% | Eos (9 h): 0.6% | Hb (9 h): 12.5 g/dL | Ht (9 h): 38.9% | Lym (9 h): 75.2% | MCH (9 h): 20.7 pg | MCHC (9 h): 32.1% | MCV (9 h): 64.5 fL | Mono (9 h): 2.6% | Neu (9 h): 21% | Plat (9 h): 129.6 x10_4/uL | RBC (9 h): 603.8 x10_4/ul | Ret (9 h): 9% | WBC (9 h): 80.7 x10_2/uL | KIDNEY_L (9 h): 1 g | KIDNEY_R (9 h): 1 g | KIDNEY_TOTAL (9 h): 1.9 g | LIVER (9 h): 8.4 g | A/G (9 h): 1 | ALP (9 h): 1550.4 IU/L | ALT (9 h): 33.8 IU/L | AST (9 h): 63.4 IU/L | BUN (9 h): 10.6 mg/dL | CRE (9 h): 0.1 mg/dL | Ca (9 h): 10.6 mg/dL | Cl (9 h): 103.4 meq/L | DBIL (9 h): 0.004 mg/dL | GLC (9 h): 176.6 mg/dL | IP (9 h): 10.9 mg/dL | K (9 h): 4.4 meq/L | LDH (9 h): 137.8 IU/L | Na (9 h): 141.6 meq/L | PL (9 h): 132.2 mg/dL | RALB (9 h): 2.7 g/dL | TBIL (9 h): 0.006 mg/dL | TC (9 h): 71.4 mg/dL | TG (9 h): 52.7 mg/dL | TP (9 h): 5.5 g/dL | gamma-GTP (9 h): 0.7 IU/L | TERMINAL_BW (24 h): 220.6 g | Bas (24 h): 0% | Eos (24 h): 0.6% | Hb (24 h): 12.6 g/dL | Ht (24 h): 38.4% | Lym (24 h): 79.4% | MCH (24 h): 20.5 pg | MCHC (24 h): 32.7% | MCV (24 h): 62.7 fL | Mono (24 h): 3.2% | Neu (24 h): 16% | Plat (24 h): 119.3 x10_4/uL | RBC (24 h): 612.8 x10_4/ul | Ret (24 h): 8% | WBC (24 h): 100 x10_2/uL | KIDNEY_L (24 h): 0.9 g | KIDNEY_R (24 h): 1 g | KIDNEY_TOTAL (24 h): 1.9 g | LIVER (24 h): 9.8 g | A/G (24 h): 1 | ALP (24 h): 1697 IU/L | ALT (24 h): 38 IU/L | AST (24 h): 72 IU/L | BUN (24 h): 13.8 mg/dL | CRE (24 h): 0.1 mg/dL | Ca (24 h): 10.9 mg/dL | Cl (24 h): 103 meq/L | DBIL (24 h): 0 mg/dL | GLC (24 h): 186.2 mg/dL | IP (24 h): 7.1 mg/dL | K (24 h): 4.4 meq/L | LDH (24 h): 181 IU/L | Na (24 h): 142 meq/L | PL (24 h): 160.8 mg/dL | RALB (24 h): 2.8 g/dL | TBIL (24 h): 0.006 mg/dL | TC (24 h): 82 mg/dL | TG (24 h): 134.9 mg/dL | TP (24 h): 5.5 g/dL | gamma-GTP (24 h): 0.8 IU/L
